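Growth conditions: 96-well plates. Treatment: test compound, 48 hours, 5 concentrations. Analysis: linear interpolation between bracketing concentrations; unreached endpoints set to highest concentration. The concentration for full growth arrest is given as TGI.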 Where only a bound is given, the exact number is not on record here.

Test systems include HCT-15 colon; OVCAR-8 ovarian; A498 renal; SF-539 CNS; MALME-3M melanoma; SNB-19 CNS; ACHN renal; NCI-H460 lung; SK-MEL-2 melanoma; SW-620 colon; HOP-92 NSCLC; RXF 393 renal; U251 CNS; M19-MEL melanoma; NCI-H23 lung; HT29 colon; SK-MEL-5 melanoma; SK-OV-3 ovarian.
Common to all, as to assay: NCI-60 cell line screen, 48 h

For `FC(F)(F)c1ccc2c(c1)N(CCCNCCN1CCOCC1)c1ccccc1S2`, the TGI in the experiment with HCT-15 colon worked out at 19.5 µM; in the experiment on OVCAR-8 ovarian, 32.8 µM; with A498 renal, 34.9 µM; in the experiment on SF-539 CNS, 16.9 µM; in the experiment on MALME-3M melanoma, 7.15 µM; with SNB-19 CNS, 30.1 µM. For the same compound, the TGI came to 24.7 µM in the experiment with ACHN renal; 38.5 µM in the experiment on NCI-H460 lung; 13.9 µM in the experiment with SK-MEL-2 melanoma; 21.9 µM in the experiment on SW-620 colon; 11.2 µM in the experiment on HOP-92 NSCLC; 9.11 µM in the experiment on RXF 393 renal. Also, the TGI with U251 CNS came out at 23.7 µM; with M19-MEL melanoma it was 22.5 µM; in the experiment on NCI-H23 lung it was 24.7 µM; in the experiment with HT29 colon, 10.4 µM; with SK-MEL-5 melanoma it was 13.8 µM.

Take `N#C/C(=C\c1ccncc1)c1csc2ccccc12`: the TGI in the experiment with HCT-15 colon is 77.4 µM; in the experiment on OVCAR-8 ovarian it was over 85.1 µM; with SK-OV-3 ovarian, over 73.1 µM; with A498 renal it was 66.6 µM; in the experiment on SF-539 CNS it was 48.9 µM; in the experiment with MALME-3M melanoma, over 96.2 µM. In addition, the TGI in the experiment on SNB-19 CNS is 69.6 µM; with NCI-H460 lung, over 69 µM; with SK-MEL-2 melanoma, 42.2 µM; in the experiment on SW-620 colon, 67.7 µM; in the experiment with HOP-92 NSCLC, 51.7 µM; in the experiment on RXF 393 renal, over 83.1 µM. For the same compound, the TGI in the experiment on U251 CNS is 61.9 µM; in the experiment with M19-MEL melanoma, over 91.2 µM; with NCI-H23 lung, over 79.8 µM; in the experiment on HT29 colon, 48.2 µM; in the experiment on SK-MEL-5 melanoma, 33.2 µM.

Consider `S=c1sc2c(s1)SC(c1ccccc1)CS2` (stereo unspecified), for which the TGI in the experiment with HCT-15 colon, in the experiment on OVCAR-8 ovarian, in the experiment on SK-OV-3 ovarian, in the experiment on A498 renal, in the experiment with SF-539 CNS and in the experiment with MALME-3M melanoma was over 100 µM throughout. The TGI in the experiment with SNB-19 CNS is over 100 µM; in the experiment on NCI-H460 lung, over 100 µM; in the experiment on SK-MEL-2 melanoma it was over 100 µM; with SW-620 colon it was over 100 µM; in the experiment on HOP-92 NSCLC, over 100 µM; in the experiment with RXF 393 renal, 91.5 µM. For the same compound, the TGI with U251 CNS, in the experiment with M19-MEL melanoma, with NCI-H23 lung, with HT29 colon and in the experiment with SK-MEL-5 melanoma was over 100 µM throughout.

For the origin of these results see PubChem BioAssay (NCI).
